Measured values reported in patent publication US10336702B2, “Pharmaceutically active compounds” (BERGENBIO ASA, priority 2015, dated 2019).

What was measured:
Akt3 = target: T1, Akt3 (Homo sapiens, UniProt Q9Y243); assay: Akt activation assay (PDK1-mediated activation, LANCE Ultra crosstide TR-FRET), Akt3; type: biochemical; conditions: read-out: Biological Assay 1 IC50 (nM) Akt3
T1 construct: unspecified tag, removed (detagged) (cleaved yes); purchased SignalChem and Proteros (Akt3); Merck Millipore (PDK1) 14-452 (PDK1); none given for Akt3
In short: (§1)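 Unactivated Akt (5 nM Akt1, 15 or 5 nM Akt2, 3 or 5 nM Akt3, by supplier) preincubated with compound, then activated by 5 nM PDK1 on DOPS/DOPC/PtdIns(3,4,5)P3 vesicles with 100 μM ATP and 100 nM Ulight-crosstide, pH 7.5, 30 min. Eu-anti-phospho-crosstide TR-FRET (665/615 nm); IC50 by 4-parameter fit.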

Akt2 = target: T2, Akt2 (Homo sapiens, UniProt P31751); assay: Akt activation assay (PDK1-mediated activation, LANCE Ultra crosstide TR-FRET), Akt2; type: biochemical; conditions: read-out: Biological Assay 1 IC50 (nM) Akt2
T2 construct: unspecified tag, removed (detagged) (cleaved yes); purchased SignalChem and Proteros (Akt2); Merck Millipore (PDK1) 14-452 (PDK1); none given for Akt2
In short: as §1

p-Akt2 in WM115 cells = target: T3, p-Akt2 in WM115 cells (Homo sapiens, UniProt P31751); assay: Phospho-Akt cellular SureFire assay, p-Akt2 in WM115 cells; type: cell-based; conditions: insulin stimulated, read-out: Biological Assay 2 IC50 (nM) Akt2 WM115
T3 construct: SureFire assays to detect cellular p-Akt1, p-Akt2 and p-Akt3 levels in WM115 cells (Akt2/3) and LNCaP cells (Akt1); endogenous in cells; host or cells: WM115 (ECACC 91061232), insulin-stimulated
In short: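 WM115 cells in 0.1% FBS medium stimulated 10 min with 100 nM insulin, then exposed to compound for 15 min at 37° C (0.3% DMSO final). Lysates assayed by AlphaScreen with anti-(pThr308)Akt and isoform-specific total Akt2 antibodies; IC50 from 4-parameter fit.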

p-Akt3 in WM115 cells = target: T4, p-Akt3 in WM115 cells (Homo sapiens, UniProt Q9Y243); assay: Phospho-Akt cellular SureFire assay, p-Akt3 in WM115 cells; type: cell-based; conditions: insulin stimulated, read-out: Biological Assay 2 IC50 (nM) Akt3 WM115
T4 construct: SureFire assays to detect cellular p-Akt1, p-Akt2 and p-Akt3 levels in WM115 cells (Akt2/3) and LNCaP cells (Akt1); endogenous in cells; host or cells: WM115 (ECACC 91061232), insulin-stimulated
In short: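 WM115 cells were serum-reduced to 0.1% FBS, stimulated with 100 nM insulin for 10 min, then exposed to compound (0.3% DMSO) for 15 min at 37 °C. Lysates were assayed for Thr308-phosphorylated Akt3 by AlphaScreen SureFire using an isoform-specific total Akt3 capture antibody. IC50 was derived from a 4-parameter fit.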

p-Akt1 in LNCaP cells = target: T5, p-Akt1 in LNCaP cells (Homo sapiens, UniProt P31749); assay: Phospho-Akt cellular SureFire assay, p-Akt1 in LNCaP cells; type: cell-based; conditions: read-out: Biological Assay 2 IC50 (nM) Akt1 LNCaP
T5 construct: SureFire assays to detect cellular p-Akt1, p-Akt2 and p-Akt3 levels in WM115 cells (Akt2/3) and LNCaP cells (Akt1); endogenous in cells; host or cells: LNCaP (ECACC 89110211)
Excerpt: Biological Assay 2: Phospho-Akt (p-Akt) Cellular SureFire Assays
The following describes SureFire assays to detect cellular p-Akt1, p-Akt2 and p-Akt3 levels in WM115 cells (Akt2/3) and LNCaP cells (Akt1). In the case of Akt2 and Akt3, Streptavidin-coated donor beads capture a biotinylated anti-mouse antibody that in turn recognises a mouse total Akt antibody which is specific to each isoform. The protein A-conjugated acceptor beads capture an antibody that recognises the phosphoprotein. Similarly in the Akt1 kit, the donor and acceptor beads are used to capture each antibody pair consisting of an antibody that specifically recognises Akt1 as well as an antibody that recognises the phosphoprotein. In each case, close proximity of the beads allows energy transfer from donor to acceptor.
AlphaScreen® SureFire™ Phospho-Akt1 (pThr308) Kit from Perkin Elmer (TGRA2S10K)
LNCaP cells (ECACC, 89110211) cultured in RPMI-1640 culture media (Fisher, 10665193) supplemented with 2 mM L-glutamine, 1% sodium pyruvate and 10% FBS
Cell treatment: 1×10^5 WM115 cells or 5×10^4 LNCaP cells were seeded into each well of a 96 well poly-D-Lysine coated tissue culture plate and incubated overnight at 37° C.+5% CO2. Media was removed from cells and replaced with assay buffer consisting of the full culture media described above but with 0.1% FBS instead of 10% FBS. Only WM115 cells were stimulated at 37° C.+5% CO2 for 10 min with 5 μL insulin at a final concentration of 100 nM. Cells were incubated with 5 μL of test compound at a final DMSO concentration of 0.3% for 15 min at 37° C.+5% CO2. Cell lysis was carried out according to kit instructions.
Assay format (performed in subdued lighting): 4 μL cell lysate and 5 μL reaction buffer were incubated together in the dark at room temperature for 2 h. Reaction buffer was supplemented with a 1/5 dilution of activation buffer, a 1/50 dilution of acceptor beads and in the case of the custom kits, antibodies were added at dilutions of 1/20,000 for Akt2 and 1/2,000 for Akt3.
2 μL dilution buffer, supplemented with a 1/20 dilution of donor beads was added to each well and incubated for a further 2 h. Plates were read with the EnVision® Multilabel Plate Reader and using the AlphaScreen settings. Compound IC50 was determined using a 4-parameter equation.

T5 sequence (P31749 whole entry): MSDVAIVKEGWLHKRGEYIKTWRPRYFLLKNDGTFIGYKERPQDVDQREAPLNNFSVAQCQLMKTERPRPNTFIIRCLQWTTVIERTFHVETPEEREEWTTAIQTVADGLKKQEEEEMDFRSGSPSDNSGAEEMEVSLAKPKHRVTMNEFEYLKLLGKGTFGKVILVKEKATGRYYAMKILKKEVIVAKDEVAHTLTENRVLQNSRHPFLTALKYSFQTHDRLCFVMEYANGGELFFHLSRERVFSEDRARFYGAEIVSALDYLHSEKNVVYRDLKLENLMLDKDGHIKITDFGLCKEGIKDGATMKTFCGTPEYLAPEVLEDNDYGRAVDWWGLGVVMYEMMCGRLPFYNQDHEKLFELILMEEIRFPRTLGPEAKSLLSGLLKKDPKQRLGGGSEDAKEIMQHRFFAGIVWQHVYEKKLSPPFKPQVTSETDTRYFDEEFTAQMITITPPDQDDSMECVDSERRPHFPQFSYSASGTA
T2 sequence (P31751 whole entry): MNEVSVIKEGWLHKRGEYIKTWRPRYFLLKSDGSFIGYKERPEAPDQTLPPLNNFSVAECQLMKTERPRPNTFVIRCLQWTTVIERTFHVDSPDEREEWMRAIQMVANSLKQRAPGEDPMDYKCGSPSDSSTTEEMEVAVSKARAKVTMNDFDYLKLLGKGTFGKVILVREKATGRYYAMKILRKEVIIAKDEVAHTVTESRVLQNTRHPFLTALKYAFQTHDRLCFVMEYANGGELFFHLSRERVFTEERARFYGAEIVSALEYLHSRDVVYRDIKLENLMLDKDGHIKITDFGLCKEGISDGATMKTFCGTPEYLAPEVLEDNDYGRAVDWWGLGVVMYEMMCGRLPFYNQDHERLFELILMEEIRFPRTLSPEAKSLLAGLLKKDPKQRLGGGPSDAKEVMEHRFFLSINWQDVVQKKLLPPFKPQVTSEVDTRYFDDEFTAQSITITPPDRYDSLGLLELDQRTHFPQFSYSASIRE
T3 sequence (P31751 whole entry): as above
T4 sequence (Q9Y243 whole entry): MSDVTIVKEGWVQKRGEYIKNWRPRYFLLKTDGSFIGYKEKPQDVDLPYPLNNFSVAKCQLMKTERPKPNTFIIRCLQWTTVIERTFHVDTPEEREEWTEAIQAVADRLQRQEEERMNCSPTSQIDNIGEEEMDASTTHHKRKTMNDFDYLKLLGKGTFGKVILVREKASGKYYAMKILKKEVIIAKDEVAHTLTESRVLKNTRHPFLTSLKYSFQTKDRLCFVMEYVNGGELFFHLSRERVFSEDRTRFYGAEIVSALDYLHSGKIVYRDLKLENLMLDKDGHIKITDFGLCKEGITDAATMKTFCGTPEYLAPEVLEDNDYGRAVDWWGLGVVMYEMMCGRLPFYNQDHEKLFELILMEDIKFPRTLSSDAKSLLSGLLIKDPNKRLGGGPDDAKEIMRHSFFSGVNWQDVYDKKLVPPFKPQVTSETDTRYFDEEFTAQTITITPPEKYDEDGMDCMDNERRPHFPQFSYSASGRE
T1 sequence (Q9Y243 whole entry): as above

For `NC1(c2ccc(-c3ncc(NC(=O)C[C@H]4CC[C@H](N5CCCC5=O)CC4)cc3-c3ccsc3)cc2)CCC1` [Example 48, N-(6-(4-(1-aminocyclobutyl)phenyl)-5-(thiophen-3-yl)pyridin-3-yl)-2-(trans-4-(2-oxopyrrolidin-1-yl)cyclohexyl)acetamide], the IC50 (Akt3) was 240 nM, the IC50 (Akt2) was 910 nM and the IC50 (p-Akt2 in WM115 cells) was 2700 nM. For the same compound, the IC50 (p-Akt3 in WM115 cells) was 110 nM and the IC50 (p-Akt1 in LNCaP cells) was > 27000 nM.
With `CC(C)N(C(=O)C1CC1)[C@H]1CC[C@H](CC(=O)Nc2cc(-c3ccccc3)c(-c3ccc([C@]4(N)C[C@](C)(O)C4)cc3)cn2)CC1` [Example A108, N-(trans-4-(2-((5-(4-(trans-1-amino-3-hydroxy-3-methylcyclobutyl)phenyl)-4-phenylpyridin-2-yl)amino)-2-oxoethyl)cyclohexyl)-N-isopropylcyclopropanecarboxamide] the IC50 (Akt3) was 23 nM, the IC50 (Akt2) was 360 nM and the IC50 (p-Akt2 in WM115 cells) was 2700 nM. For the same compound, the IC50 (p-Akt3 in WM115 cells) was 110 nM and the IC50 (p-Akt1 in LNCaP cells) was > 10000 nM.
`COC(=O)N(C)[C@H]1CC[C@H](CC(=O)Nc2cnc(-c3ccc(C4(N)CCC4)cc3)c(-c3ccsc3)c2)CC1` [Example A68, Methyl (trans-4-(2-((6-(4-(1-aminocyclobutyl)phenyl)-5-(thiophen-3-yl)pyridin-3-yl)amino)-2-oxoethyl)cyclohexyl)(methyl)carbamate] was tested, and the IC50 (Akt3) was 40 nM, the IC50 (Akt2) was 850 nM and the IC50 (p-Akt2 in WM115 cells) was 7400 nM. The IC50 (p-Akt3 in WM115 cells) was 250 nM and the IC50 (p-Akt1 in LNCaP cells) was > 30000 nM.
Work on `CC(=O)N(C)[C@H]1CC[C@H](CC(=O)Nc2cc(-c3ccccc3)c(-c3ccc([C@]4(N)C[C@](C)(O)C4)cc3)cn2)CC1` [Example A58, N-(5-(4-(trans-1-amino-3-hydroxy-3-methylcyclobutyl)phenyl)-4-phenylpyridin-2-yl)-2-(trans-4-(N-methylacetamido)cyclohexyl)acetamide] yielded an IC50 (Akt3) of 8 nM, an IC50 (Akt2) of 190 nM and an IC50 (p-Akt2 in WM115 cells) of 480 nM. It also gave an IC50 (p-Akt3 in WM115 cells) of 11 nM and an IC50 (p-Akt1 in LNCaP cells) of 7900 nM.
With `COC(=O)N(C(C)C)[C@H]1CC[C@H](CC(=O)Nc2cnc(-c3ccc([C@]4(N)C[C@](C)(O)C4)cc3)c(-c3ccccc3)c2)CC1` [Example 121, Methyl (trans-4-(2-((6-(4-(trans-1-amino-3-hydroxy-3-methylcyclobutyl)phenyl)-5-phenylpyridin-3-yl)amino)-2-oxoethyl)cyclohexyl) (isopropyl)carbamate] the IC50 (Akt3) was 7 nM, the IC50 (Akt2) was 160 nM and the IC50 (p-Akt2 in WM115 cells) was 390 nM. The IC50 (p-Akt3 in WM115 cells) was 11 nM and the IC50 (p-Akt1 in LNCaP cells) was 1800 nM.
`CCCC(=O)N(C)[C@H]1CC[C@H](CC(=O)Nc2cnc(-c3ccc(C4(N)CC4)cc3)c(-c3ccccc3)c2)CC1` [Example A33, N-(trans-4-(2-((6-(4-(1-aminocyclopropyl)phenyl)-5-phenylpyridin-3-yl)amino)-2-oxoethyl)cyclohexyl)-N-methylbutyramide] was tested, and the IC50 (Akt3) was 98 nM, the IC50 (Akt2) was 380 nM and the IC50 (p-Akt2 in WM115 cells) was 2500 nM. For the same compound, the IC50 (p-Akt3 in WM115 cells) was 140 nM and the IC50 (p-Akt1 in LNCaP cells) was > 16000 nM.
For `COC(=O)N[C@H]1CC[C@H](CC(=O)Nc2cc(-c3ccccc3)c(-c3ccc([C@]4(N)C[C@](C)(O)C4)cc3)cn2)CC1` [Example 103, Methyl (trans-4-(2-((5-(4-(trans-1-amino-3-hydroxy-3-methylcyclobutyl)phenyl)-4-phenylpyridin-2-yl)amino)-2-oxoethyl)cyclohexyl)carbamate], the IC50 (Akt3) was 11 nM, the IC50 (Akt2) was 78 nM and the IC50 (p-Akt2 in WM115 cells) was 390 nM. It also gave an IC50 (p-Akt3 in WM115 cells) of 15 nM and an IC50 (p-Akt1 in LNCaP cells) of 2600 nM.
In the case of `COC(=O)N(C)[C@H]1CC[C@H](C(C)C(=O)Nc2cnc(-c3ccc(C4(N)CCC4)cc3)c(-c3ccccc3)c2)CC1` (relative stereo) [Example 54, Methyl (trans-4-(1-((6-(4-(1-aminocyclobutyl)phenyl)-5-phenylpyridin-3-yl)amino)-1-oxopropan-2-yl)cyclohexyl)(methyl)carbamate], the IC50 (Akt3) is reported as 280 nM, the IC50 (Akt2) is reported as 970 nM and the IC50 (p-Akt2 in WM115 cells) is reported as 6400 nM. For the same compound, the IC50 (p-Akt3 in WM115 cells) was 240 nM and the IC50 (p-Akt1 in LNCaP cells) was > 21000 nM.
`C[C@]1(O)C[C@@](N)(c2ccc(-c3cnc(NC(=O)C[C@H]4CC[C@H](N5CCOC5=O)CC4)cc3-c3ccccc3)cc2)C1` [Example A57, N-(5-(4-(trans-1-amino-3-hydroxy-3-methylcyclobutyl)phenyl)-4-phenylpyridin-2-yl)-2-(trans-4-(2-oxooxazolidin-3-yl)cyclohexyl)acetamide] gave an IC50 (Akt3) of 8 nM, an IC50 (Akt2) of 130 nM and an IC50 (p-Akt2 in WM115 cells) of 360 nM. The IC50 (p-Akt3 in WM115 cells) was 17 nM and the IC50 (p-Akt1 in LNCaP cells) was 5800 nM.
`COC(=O)N(C)[C@H]1CC[C@H](CC(=O)Nc2cc(-c3ccccc3)c(-c3ccc([C@]4(N)C[C@H](F)C4)cc3)nn2)CC1` [Example A60, Methyl (trans-4-(2-((6-(4-(trans-1-amino-3-fluorocyclobutyl)phenyl)-5-phenylpyridazin-3-yl)amino)-2-oxoethyl)cyclohexyl)(methyl)carbamate] was tested, and the IC50 (Akt3) was 22 nM, the IC50 (Akt2) was 630 nM and the IC50 (p-Akt2 in WM115 cells) was 15000 nM. For the same compound, the IC50 (p-Akt3 in WM115 cells) was 670 nM and the IC50 (p-Akt1 in LNCaP cells) was > 30000 nM.
Compound `COCCN(C)[C@H]1CC[C@H](CC(=O)Nc2cnc(-c3ccc(C4(N)CCC4)cc3)c(-c3ccsc3)c2)CC1` [Example 39, N-(6-(4-(1-aminocyclobutyl)phenyl)-5-(thiophen-3-yl)pyridin-3-yl)-2-(trans-4-((2-methoxyethyl)(methyl)amino)cyclohexyl)acetamide] has an IC50 (Akt3) of 2300 nM, an IC50 (Akt2) of 3100 nM and an IC50 (p-Akt2 in WM115 cells) of 4200 nM. For the same compound, the IC50 (p-Akt3 in WM115 cells) was 180 nM and the IC50 (p-Akt1 in LNCaP cells) was > 14000 nM.
`CC(=O)N(C)[C@H]1CC[C@H](CC(=O)Nc2cc(-c3ccccc3)c(-c3ccc(C4(N)CCC4)cc3)cn2)CC1` [Example 33, N-(5-(4-(1-aminocyclobutyl)phenyl)-4-phenylpyridin-2-yl)-2-(trans-4-(N-methylacetamido)cyclohexyl)acetamide] gave an IC50 (Akt3) of 92 nM, an IC50 (Akt2) of 540 nM and an IC50 (p-Akt2 in WM115 cells) of 2500 nM. For the same compound, the IC50 (p-Akt3 in WM115 cells) was 100 nM and the IC50 (p-Akt1 in LNCaP cells) was 9800 nM.
Compound `CC(C)OC(=O)N(C)[C@H]1CC[C@H](CC(=O)Nc2cc(-c3ccccc3)c(-c3ccc([C@]4(N)C[C@](C)(O)C4)cc3)cn2)CC1` [Example A74, Isopropyl (trans-4-(2-((5-(4-(trans-1-amino-3-hydroxy-3-methylcyclobutyl)phenyl)-4-phenylpyridin-2-yl)amino)-2-oxoethyl)cyclohexyl)(methyl)carbamate] has an IC50 (Akt3) of 22 nM, an IC50 (Akt2) of 210 nM and an IC50 (p-Akt2 in WM115 cells) of 3000 nM. For the same compound, the IC50 (p-Akt3 in WM115 cells) was 160 nM and the IC50 (p-Akt1 in LNCaP cells) was 11000 nM.
In the case of `CCC(=O)N(C)[C@H]1CC[C@H](CC(=O)Nc2cc(-c3ccsc3)c(-c3ccc([C@]4(N)C[C@](C)(O)C4)cc3)cn2)CC1` [Example 110, N-(trans-4-(2-((5-(4-(trans-1-amino-3-hydroxy-3-methylcyclobutyl)phenyl)-4-(thiophen-3-yl)pyridin-2-yl)amino)-2-oxoethyl)cyclohexyl)-N-methylpropionamide], the IC50 (Akt3) is reported as 17 nM, the IC50 (Akt2) is reported as 380 nM and the IC50 (p-Akt2 in WM115 cells) is reported as 1200 nM. It also gave an IC50 (p-Akt3 in WM115 cells) of 16 nM and an IC50 (p-Akt1 in LNCaP cells) of 8800 nM.
